Experimental data reported in patent US9861099B2, “Composition for enhancing plant disease control effect of monosaccharide” (MITSUI CHEMICALS AGRO, INC., priority 2013, dated 2018).

test system: Pseudoperonospora cubensis; test: Cucumber downy mildew (CDM) control test; type: in vivo; details: Table 8: D-tagatose liquid preparation with assistant (5 parts), 10-fold dilution (D-tagatose 0.5%+assistant 0.5%); improvement vs D-tagatose only

| Compound | Evaluation Score CDM |
| --- | --- |
| OC[C@H]1O[C@H](O[C@H]2[C@H](O)[C@@H](O)C(O)O[C@@H]2CO)[C@H](O)[C@@H](O)[C@@H]1O (mixture of isomers) [Maltose] | 1 (Improvement in preventive value of 1 to less than 10) |
| C[N+](C)(C)CC(O)CC(=O)[O-] (racemic) [DL-carnitine] | 2 (Improvement in preventive value of 10 to less than 20) |
| CC(=O)O [Acetic acid] | 1 (Improvement in preventive value of 1 to less than 10) |
| Nc1ncnc2[nH]cnc12 [Adenine] | 0 |
| Nc1ncnc2c1ncn2[C@@H]1O[C@H](CO)[C@@H](O)[C@H]1O [Adenosine] | 0 |
| OC[C@@H](O)[C@@H](O)[C@@H](O)[C@@H](O)CO [Allitol] | 2 (Improvement in preventive value of 10 to less than 20) |
| O=C[C@H](O)[C@@H](O)[C@H](O[C@@H]1O[C@H](CO)[C@@H](O)[C@H](O)[C@H]1O)[C@H](O)CO [Cellobiose] | 1 (Improvement in preventive value of 1 to less than 10) |
| Nc1ccn([C@@H]2O[C@H](CO)[C@@H](O)[C@H]2O)c(=O)n1 [Cytidine] | 1 (Improvement in preventive value of 1 to less than 10) |
| Nc1cc[nH]c(=O)n1 [Cytosine] | 0 |
| OC[C@H]1OC(O)[C@@H](O)[C@H](O)[C@@H]1O (stereo partly drawn) [D-altrose] | 4 (Improvement in preventive value of 30 to less than 40) |
| O=C[C@@H](O)[C@H](O)[C@H](O)CO [D-arabinose] | 1 (Improvement in preventive value of 1 to less than 10) |
| O=C(CO)[C@@H](O)[C@H](O)[C@H](O)CO [D-fructose] | 2 (Improvement in preventive value of 10 to less than 20) |
| C[C@@H](O)[C@H](O)[C@H](O)[C@@H](O)C=O [D-fucose] | 2 (Improvement in preventive value of 10 to less than 20) |
| O=C[C@H](O)[C@@H](O)[C@@H](O)[C@H](O)C(=O)O [D-galacturonic acid] | 3 (Improvement in preventive value of 20 to less than 30) |
| O=C1O[C@H](CO)[C@@H](O)[C@H](O)[C@H]1O [D-gluconolactone] | 2 (Improvement in preventive value of 10 to less than 20) |
| O=C[C@H](O)CO [D-glyceraldehyde] | 4 (Improvement in preventive value of 30 to less than 40) |
| OC[C@@H](O)[C@@H](O)[C@H](O)[C@H](O)CO [D-mannitol] | 1 (Improvement in preventive value of 1 to less than 10) |
| O=C[C@H](O)[C@H](O)[C@H](O)CO [D-ribose] | 2 (Improvement in preventive value of 10 to less than 20) |
| OC[C@@H](O)[C@@H](O)[C@H](O)[C@@H](O)CO [D-sorbitol] | 1 (Improvement in preventive value of 1 to less than 10) |
| O=C[C@H](O)[C@@H](O)[C@H](O)CO [D-xylose] | 1 (Improvement in preventive value of 1 to less than 10) |
| O=C(CO)[C@@H](O)[C@H](O)CO [D-xylulose] | 1 (Improvement in preventive value of 1 to less than 10) |
| O=CC[C@H](O)[C@H](O)CO [Formula 2-deoxy-D-ribose, 2-deoxy-D-ribose] | 4 (Improvement in preventive value of 30 to less than 40) |
| Nc1nc2c(ncn2[C@@H]2O[C@H](CO)[C@@H](O)[C@H]2O)c(=O)[nH]1 [Guanosine] | 0 |
| NC(=O)C[C@H](N)C(=O)O [L-asparagine] | 1 (Improvement in preventive value of 1 to less than 10) |
| N[C@@H](CS)C(=O)O [L-cysteine] | 3 (Improvement in preventive value of 20 to less than 30) |

| Compound | Evaluation Score CDM |
| --- | --- |
| C[C@@H]1OC(O)[C@@H](O)[C@H](O)[C@@H]1O (stereo partly drawn) [L-fucose] | 2 (Improvement in preventive value of 10 to less than 20) |
| NC(=O)CC[C@H](N)C(=O)O [L-glutamine] | 1 (Improvement in preventive value of 1 to less than 10) |
| N[C@@H](Cc1c[nH]cn1)C(=O)O [L-histidine] | 3 (Improvement in preventive value of 20 to less than 30) |
| CC[C@H](C)[C@H](N)C(=O)O [L-isoleucine] | 1 (Improvement in preventive value of 1 to less than 10) |
| CSCC[C@H](N)C(=O)O [L-methionine] | 2 (Improvement in preventive value of 10 to less than 20) |
| N[C@@H](Cc1ccccc1)C(=O)O [L-phenylalanine] | 3 (Improvement in preventive value of 20 to less than 30) |
| O=C(O)[C@@H]1CCCN1 [L-proline] | 1 (Improvement in preventive value of 1 to less than 10) |
| C[C@H](O)[C@H](O)[C@@H](O)[C@@H](O)C=O [L-rhamnose] | 2 (Improvement in preventive value of 10 to less than 20) |
| N[C@@H](CO)C(=O)O [L-serine] | 1 (Improvement in preventive value of 1 to less than 10) |
| C[C@@H](O)[C@H](N)C(=O)O [L-threonine] | 1 (Improvement in preventive value of 1 to less than 10) |
| CC(O)C(=O)O (centres unmarked) [Lactic acid] | 0 |
| O=C(O)CC(=O)O [Malonic acid] | 0 |
| O=C(CO)[C@@H](O)[C@H](O[C@H]1O[C@H](CO)[C@@H](O)[C@H](O)[C@H]1O)[C@H](O)CO [Maltulose] | 1 (Improvement in preventive value of 1 to less than 10) |
| OC[C@@H](O)[C@@H](O)CO [Meso-erythritol] | 3 (Improvement in preventive value of 20 to less than 30) |
| OC[C@H]1O[C@H](OC[C@H]2O[C@H](O[C@]3(CO)O[C@H](CO)[C@@H](O)[C@@H]3O)[C@H](O)[C@@H](O)[C@@H]2O)[C@H](O)[C@@H](O)[C@H]1O [Raffinose] | 4 (Improvement in preventive value of 30 to less than 40) |
| O=C[C@H](O)[C@@H](O)[C@H](O)[C@H](O)C(=O)[O-].[Na+] [Sodium D-glucuronate] | 1 (Improvement in preventive value of 1 to less than 10) |
| OC[C@H]1O[C@@](CO)(O[C@H]2O[C@H](CO)[C@@H](O)[C@H](O)[C@H]2O)[C@@H](O)[C@@H]1O [Sucrose] | 1 (Improvement in preventive value of 1 to less than 10) |
| OC[C@H]1O[C@H](O[C@H]2O[C@H](CO)[C@@H](O)[C@H](O)[C@H]2O)[C@H](O)[C@@H](O)[C@@H]1O [Trehalose] | 3 (Improvement in preventive value of 20 to less than 30) |
| O=c1cc[nH]c(=O)[nH]1 [Uracil] | 1 (Improvement in preventive value of 1 to less than 10) |
| O=c1ccn([C@@H]2O[C@H](CO)[C@@H](O)[C@H]2O)c(=O)[nH]1 [Uridine] | 0 |
| OC[C@@H](O)[C@H](O)[C@@H](O)CO [Xylitol] | 2 (Improvement in preventive value of 10 to less than 20) |
| D-glucose | 1 (Improvement in preventive value of 1 to less than 10) |
| L-alanine | 2 (Improvement in preventive value of 10 to less than 20) |
| L-leucine | 3 (Improvement in preventive value of 20 to less than 30) |
| L-valine | 3 (Improvement in preventive value of 20 to less than 30) |

same assay, conditions: in vivo

| Compound | Evaluation Score CDM |
| --- | --- |
| O=C(O)c1ccccc1 [Benzoic acid] | 0 |
| O=C(O)CCCC(=O)O [Glutaric acid] | 0 |
| Nc1nc2nc[nH]c2c(=O)[nH]1 [Guanine] | 0 |
